This note sets out measurements from patent US9771353B2, “Kinase inhibitors based upon N-alkyl pyrazoles” (RESPIVERT LIMITED, priority 2013, dated 2017).

Assay [1] deals with intestinal mucosa biopsies from UC patients. Briefly: Human biopsy assay (l): cytokine release from intestinal mucosa biopsies of ulcerative colitis patients. Type of assay: cell-based. The settings on record: 1 μg/mL, 24 hours. As for the experimental part: Intestinal mucosa biopsies are obtained from the inflamed regions of the colon of IBD patients. The biopsy material is cut into small pieces (2-3 mm) and placed on steel grids in an organ culture chamber at 37° C. in a 5% CO2/95% O2 atmosphere in serum-free media. DMSO control or test compounds at the desired concentration are added to the tissue and incubated for 24 hr in the organ culture chamber. The supernatant is harvested for determination of IL-6, IL-8, IL-1β and TNFα levels by R&D ELISA. Percentage inhibition of cytokine release by the test compounds is calculated relative to the cytokine release determined for the DMSO control (100%).

The target in the next assay is GSK3α (Homo sapiens (Human), UniProt P49840). Briefly: GSK 3α enzyme inhibition (FRET, Z-LYTE), Method 2. Type of assay: biochemical. As for the experimental part:
(§1) The enzyme inhibitory activities of compounds disclosed herein are determined by FRET using synthetic peptides labelled with both donor and acceptor fluorophores (Z-LYTE, Invitrogen Ltd., Paisley, UK).
The inhibitory activities of compounds of the invention against the GSK 3α enzyme isoform (Invitrogen), are evaluated by determining the level of activation/phosphorylation of the target peptide. The GSK3-α protein (500 ng/mL, 2.5 μL) is mixed with the test compound (2.5 μL at either 4 μg/mL, 0.4 μg/mL, 0.04 μg/mL, or 0.004 μg/mL) for 2 hr at RT. The FRET peptide (8 μM, 2.5 μL), which is a phosphorylation target for GSK3α, and ATP (40 μM, 2.5 μL) are then added to the enzyme/compound mixture and the resulting mixture incubated for 1 hr. Development reagent (protease, 5 μL) is added for 1 hr prior to detection in a fluorescence microplate reader (Varioskan® Flash, ThermoFisher Scientific).
(§2) In all cases, the site-specific protease cleaves non-phosphorylated peptide only and eliminates the FRET signal. Phosphorylation levels of each reaction are calculated using the ratio of coumarin emission (donor) over fluorescein emission (acceptor), for which high ratios indicate high phosphorylation and low ratios indicate low phosphorylation levels.
This method follows the same steps as Method 1 above, but utilises a shorter period of mixing of the test compound (105 minutes instead of 2 hours) with the GSK3-α protein.

The next assay relates to HT29 cells. The experiment in a line: IL-1β-induced IL-8 release in HT29 cells, assay (d). Type of assay: cell-based. The settings on record: Homo sapiens, HT-29, IL-1β-stimulated HT29 cells, read-out: IC50 Values for Inhibition of Cytokine Release, HT29 cells IL-8. How it is done:
HT29 cells, a human colon adenocarcinoma cell line, are plated in a 96 well plate (24 hrs) and pre-treated with compounds at the desired concentration for 2 hours before addition of 5 ng/mL of IL-1β (Abcam) for 24 hours. Supernatants are harvested for IL-8 quantification by Sandwich ELISA (Duo-set, R&D System). The IC50 is determined from the dose response curve.

Assay [2] relates to TNBS-induced colitis in mice. Briefly: TNBS-induced colitis in mice, in vivo assay (iv), conducted over 2 days. The settings on record: for Ulcer grade: TNBS + Vehicle 4.3 ± 0.2; for LP inflammation: TNBS + Vehicle 4.7 ± 0.1. As for the experimental part:
Non-fasted, 10-12 week old, male BDF1 mice are dosed by oral gavage twice daily with either vehicle (5 mL/kg), reference item (Budesonide 2.5 mg/kg) or test compound (1 or 5 mg/kg) one day before (Day −1) stimulation of the inflammatory response by treatment with 2,4,6-trinitrobenzenesulphonic acid (TNBS) (15 mg/mL in 50% ethanol/50% saline). On Day 0 of the study TNBS (200 μL) is administered intra-colonically via a plastic catheter with BID dosing of the vehicle, reference or test compound continuing for 2 or 4 days. During the study animals are weighed every day and stool observations are made and recorded as a score, based on stool consistency. At the time of sacrifice on Day 2 (or Day 4) the large intestine is removed and the length and weight recorded. Sections of the colon are taken for histopathology scoring to determine disease severity.

A further assay deals with p38 MAPKα (Homo sapiens (Human), UniProt Q16539). Briefly: p38 MAPKα enzyme inhibition (FRET, Z-LYTE), Method 2. It counts as biochemical.
Sequence of p38 MAPKα (Q16539 whole entry): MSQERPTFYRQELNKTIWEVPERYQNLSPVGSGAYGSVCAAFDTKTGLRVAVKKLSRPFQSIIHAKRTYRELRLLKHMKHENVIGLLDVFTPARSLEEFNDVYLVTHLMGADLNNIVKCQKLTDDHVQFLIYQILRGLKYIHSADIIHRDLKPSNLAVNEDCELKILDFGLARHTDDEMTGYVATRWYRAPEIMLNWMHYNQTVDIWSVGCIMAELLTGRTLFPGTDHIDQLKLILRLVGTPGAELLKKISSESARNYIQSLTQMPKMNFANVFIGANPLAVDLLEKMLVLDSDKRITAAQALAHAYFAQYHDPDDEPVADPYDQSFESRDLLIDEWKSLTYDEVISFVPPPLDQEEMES
The target in a further assay is c-Src (Homo sapiens (Human), UniProt P12931). The experiment in a line: c-Src enzyme inhibition (FRET, Z-LYTE). It counts as biochemical. How it is done:
as §1
The relevant enzyme (3000 ng/mL or 2000 ng/mL respectively, 2.5 μL) is incubated with the test compound (either 4 μg/mL, 0.4 μg/mL, 0.04 μg/mL, or 0.004 μg/mL, 2.5 μL each) for 2 hr at RT. The FRET peptides (8 μM, 2.5 μL), and appropriate ATP solutions (2.5 μL, 800 μM for c-Src, and 60 μM ATP for Syk) are then added to the enzymes/compound mixtures and incubated for 1 hr. Development reagent (protease, 5 μL) is added for 1 hr prior to detection in a fluorescence microplate reader (Varioskan® Flash, ThermoFisher Scientific).
as §2

Where [3] appears, read: UC patient biopsies, DMSO control = 100%.

Sequence of GSK3α (P49840 whole entry): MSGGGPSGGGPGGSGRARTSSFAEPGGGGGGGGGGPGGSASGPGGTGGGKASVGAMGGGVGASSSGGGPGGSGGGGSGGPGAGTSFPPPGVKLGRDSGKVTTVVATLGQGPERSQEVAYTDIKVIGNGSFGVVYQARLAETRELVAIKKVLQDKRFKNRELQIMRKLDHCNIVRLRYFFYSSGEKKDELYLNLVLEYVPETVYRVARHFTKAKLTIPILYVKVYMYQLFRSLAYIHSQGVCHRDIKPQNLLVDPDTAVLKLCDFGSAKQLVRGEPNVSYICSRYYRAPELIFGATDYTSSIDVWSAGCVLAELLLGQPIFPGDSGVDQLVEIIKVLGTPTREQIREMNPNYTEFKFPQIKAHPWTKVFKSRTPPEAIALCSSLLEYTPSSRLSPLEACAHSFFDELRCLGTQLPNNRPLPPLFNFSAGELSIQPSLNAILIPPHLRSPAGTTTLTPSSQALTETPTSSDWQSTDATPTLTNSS
Sequence of c-Src (P12931 whole entry, looked up): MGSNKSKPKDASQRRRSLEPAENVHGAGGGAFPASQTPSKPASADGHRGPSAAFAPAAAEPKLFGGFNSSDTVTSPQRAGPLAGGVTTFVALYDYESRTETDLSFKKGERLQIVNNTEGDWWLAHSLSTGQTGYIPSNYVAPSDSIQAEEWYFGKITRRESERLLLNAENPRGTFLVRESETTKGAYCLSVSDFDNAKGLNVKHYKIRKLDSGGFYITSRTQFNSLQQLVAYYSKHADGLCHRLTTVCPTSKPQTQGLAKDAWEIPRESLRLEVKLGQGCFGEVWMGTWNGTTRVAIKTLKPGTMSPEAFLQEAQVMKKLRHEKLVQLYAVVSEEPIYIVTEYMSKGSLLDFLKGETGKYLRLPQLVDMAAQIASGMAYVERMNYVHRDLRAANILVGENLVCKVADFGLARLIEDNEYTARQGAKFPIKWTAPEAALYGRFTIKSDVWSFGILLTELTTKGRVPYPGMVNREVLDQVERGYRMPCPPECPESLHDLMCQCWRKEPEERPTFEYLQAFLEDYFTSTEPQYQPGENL

One may read the IC50 as the concentration that gives 50% inhibition. In the case of `C#Cc1cc(Nc2nccc(Oc3ccc(NC(=O)Nc4cc(C(C)(C)C)nn4C)c4ccccc34)n2)cc(C(=O)NCCN2CCOCC2)c1` [Example 1, 3-((4-((4-(3-(3-(tert-Butyl)-1-methyl-1H-pyrazol-5-yl)ureido)naphthalen-1-yl)oxy)pyrimidin-2-yl)amino)-5-ethynyl-N-(2-morpholinoethyl)benzamide], in assay [1] (setting [3]), the IL-1β release was determined as 3 ± 2%, the IL-6 release is given as 8 ± 8% and the IL-8 release turned out to be 2 ± 2%. Further, in assay [1] (biopsies from ulcerative colitis patients), the “cytokine (IL-1β, IL-6 and IL-8) release compared to the DMSO control” value is “significantly inhibited”. This molecule registered an IC50 at GSK3α of 499 nM. For the same molecule, the IC50 in the assay on HT29 cells was determined as 33.4 nM. In assay [2] (1 mg/kg oral BID, mice, 2 days), the Ulcer grade came to 3.3 ± 0.5 and the LP inflammation was 4.2 ± 0.2. Also, in assay [2] (5 mg/kg oral BID, mice, 2 days), the Ulcer grade is 3.2 ± 0.5 and the LP inflammation was 2.4 ± 0.3. For the same molecule, the “inflammatory cell infiltrate in the reticular and laminar propria zone” value in assay [2] (TNBS colitis, mice) is “marked reduction”. In addition, in assay [2] (TNBS colitis, mice, 2 days), the “activity in in vivo model of colonic inflammation (histopathology analysis)” value is recorded as “significant activity”. Besides, the “ulcer grade and epithelial repair compared to the vehicle control” value in assay [2] (dosed orally at either 1 or 5 mg/kg) is recorded as “marked improvements”.

Regarding `COCCOCCOCCOc1cc(Nc2nccc(Oc3ccc(NC(=O)Nc4cc(C(C)(C)C)nn4C)c4ccccc34)n2)cc(OC)c1` [Example 2, 1-(3-(tert-Butyl)-1-methyl-1H-pyrazol-5-yl)-3-(4-((2-((3-methoxy-5-(2-(2-(2-methoxy-ethoxy)ethoxy)ethoxy)phenyl)amino)pyrimidin-4-yl)oxy)naphthalen-1-yl)urea], the IC50 on p38 MAPKα amounted to 10 nM; on GSK3α it was 5230 nM; at c-Src, 5 nM; in the assay on HT29 cells it was 16.6 nM.
